Laboratory results: patent US20070042056A1, “Anti-stress agent” (priority 2003, published 2007)

What was measured:
rat = details: cited from earlier work; for development of gastric ulcer: cold-restraint stress (4° C., 2 hours), intraventricular administration
ddy male mice = assay: Enhancing activity on pentobarbital-induced sleep (duration of the sleeping time); format: in vivo
Description: As a test animal, ddy male mice (8-week age) were purchased from Shimizu Laboratory Supplies Co., Ltd., pre-bred for one week and used in the experiment. Each five of the mice were bred in a polyisopentene cage (manufactured by Clea Japan. Inc.) in a breeding chamber where the breeding conditions were set at room temperature of 23±2° C., humidity of 55±5%, ventilation frequency of 12 to 15/hour (all fresh air ventilation), and lighting hours of 12 hours/day (from 7 a.m. to 7 p.m.). The mice were fed solid feed CE-2 (Clea Japan Inc.) and were allowed free access to water.
1-Octen-3-ol dissolved in olive oil was orally administered to a mouse at a dose of 20 or 100 mg/kg. In each group, 8 mice were used. Thirty minutes later, pentobarbital dissolved in physiological saline was intraperitoneally administered at a dose of 50 mg/kg, and duration of the sleeping time was measured. The sleeping time was defined as the time period from the loss of righting reflex until its recovery.
The experimental results shown in FIG. 3 are expressed by average±standard error, and Student t-test was used in a significant difference test.
As a test animal, ddy male mice (8-week age) were purchased from Shimizu Laboratory Supplies Co., pre-bred for one week, and used in the experiment. Each five of the mice were bred in a polyisopentene cage (manufactured by Clea Japan. Inc.) in a breeding chamber where the breeding conditions were set at room temperature of 23±2° C., humidity of 55±5%, ventilation frequency of 12 to 15/hour (all fresh air ventilation) and lighting hours of 12 hours a day (from 7 a.m. to 7 p.m.). The mice were fed solid feed CE-2 (Clea Japan. Inc.) and were allowed free access to water.
A mouse was made to aspirate cis-jasmone and methyl jasmonate diluted to 0.1% in an exposure box until the completion of the experiment. In each group, 5 mice were used. Thirty minutes after initiation of aspiration, pentobarbital dissolved in physiological saline was intraperitoneally administered at a dose of 50 mg/kg, and duration of the sleeping time was measured. […]

GABA receptor [1] = assay: In vitro GABA receptor-activating activity, Xenopus oocyte expressing GABA receptor, voltage clamp; format: cell-based, rat; details: for GABA response to GABA receptor, relative value of inhibitory potential vs GABA only (set at 100%): GABA 5 μM
Description: As an experimental material, an oocyte of Xenopus was used. A rat-derived GABA receptor mRNA was injected into the nucleus of an oocyte to express GABA receptor on the surface of the egg. The oocyte was cultured in a normal Ringer's solution for frog (115 mM NaCl, 1 mM KCl, 1.8 mM CaCl2, 5 mM Tris, pH 7.2). Using the resulting oocyte, inhibitory potential of GABA (10 μM) and inhibitory potential of a mixed solution of GABA (10 μM) and the below mentioned sample were measured. Generation of inhibitory potential was measured by voltage clamp method using a voltage clamping amplifier (CEZ-1100; manufactured by NIHON KODEN CORPORATION).
As a sample, the following 9 kinds of aroma components contained in coffee or teas were used in a concentration of 2 μl/ml. Samples used are as follows: 2-methyl-3-buten-2-ol (expressed by 2-M3BOL in FIG. 1), 3-methyl-2-buten-1-ol (expressed by 3-M2BOL in FIG. 1), 1-penten-3-ol (expressed by 1-POL in FIG. 1), (E)-2-hexen-1-ol (expressed by HXOL in FIG. 1), 1-octen-3-ol (expressed by 1-OCOL in FIG. 1), sotolone (expressed by STOL in FIG. 1), 2,4-dimethylstyrene (expressed by 2,4-DMS in FIG. 1), benzothiazole (expressed by BZT in FIG. 1) and 2,3,5-trimethylphenol (expressed by 2,3,5-TEP in FIG. 1). The aforementioned samples used in the experiment were commercially available products. That is, sotolone manufactured by Ogawa & Co., Ltd. and other compounds manufactured by Tokyo Kasei Co., Ltd. were used.
As an index, enhancing activity of the sample on inhibitory potential induced by GABA was used. The results are expressed by % increase of the inhibitory potential when GABA and a sample were used in combination, relative to the inhibitory potential generated when only GABA (0.25 μM) was added (set at 100%).
Dose dependency of 1-octen-3-ol which had been recognized to have a strong activity in Example 1 was studied. The experimental procedures were entirely the same as those of Example 1. The concentration of GABA was 5 μM, and the concentration of 1-octen-3-ol was 0.3 to 1 mM. […] The results shown in FIG. 2 are expressed by the relative value of the inhibitory potential when GABA and 1-octen-3-ol were used in combination, compared to the inhibitory potential generated when only GABA (5 μM) was added (set at 100%).
As an experimental material, an oocyte of Xenopus was used. A rat-derived GABA receptor mRNA was injected into the nucleus of an oocyte to express GABA receptor on the surface of an egg. The oocyte was cultured in a normal Ringer's solution for frog (115 mM NaCl, 1 mM KCl, 1.8 mM CaCl2, 5 mM Tris, pH 7.2). Generation of the inhibitory potential induced by GABA (0.25 μM) was measured by voltage clamp method using a voltage clamping amplifier (CEZ-1100; manufactured by Nihon Koden corporation).
As samples, the below-mentioned 4 kinds of aroma components of oolong tea were used in a concentration of 0.5 mM. The samples used are as follows: cis-jasmone, methyl jasmonate, jasmine lactone and linalool oxide.
Dose dependency of cis-jasmone and methyl jasmonate which had been recognized to have a strong activity in Example 4 was studied. The experimental procedures were entirely the same as those of Example 4. The concentration of GABA was 5 μM, and the concentrations of cis-jasmone and methyl jasmonate were 0.2 to 1 mM. […] The results shown in FIG. 5 are expressed by the relative value of the inhibitory potential when GABA and cis-jasmone and methyl jasmonate were used in combination compared to the inhibitory potential generated when only GABA (5 μM) was added (set at 100%).

[2] = 1998-1999 Scientific Research Subsidy Research Outcome Report; cited from earlier work
GABA receptor [3] = details: Biosci. Biotechnol. Biochem., 63, 743-748, 1999; cited from earlier work
[4] = Example 6, FIG. 6, aspiration of sample diluted to 0.1% in exposure box, pentobarbital 50 mg/kg i.p. after 30 min
[5] = Example 4, FIG. 4, sample 0.5 mM, GABA 0.25 μM
[6] = Example 5, FIG. 5, sample 0.2 to 1 mM

Structure (SMILES): NCc1cc(=O)[nH]o1 [Muscimol]
- development of gastric ulcer (rat): suppressed in a dose dependent manner

Structure (SMILES): CC/C=C\CC1=C(C)CCC1=O [cis-jasmone]
- duration of the sleeping time induced by pentobarbital (ddy male mice; [4]): significantly extended duration of the sleeping time
- enhancing activity of the sample on inhibitory potential induced by GABA (GABA receptor [1]; [5]): activity to enhance the response
- GABA response to GABA receptor, relative value of inhibitory potential vs GABA only (set at 100%) (GABA receptor [1]; [6]): up to 200%

Structure (SMILES): CN1CCc2cc3c(cc2[C@H]1[C@@H]1OC(=O)c2c1ccc1c2OCO1)OCO3 [bicuculine]
- effect on the inhibitory effect of GABA on stress ulceration (rat; cold-restraint stress, bicuculine 40 μg): diminishes the inhibitory effect of GABA on stress ulceration

Structure (SMILES): C=CC(O)CCCCC (centres unmarked) [1-octen-3-ol]
- duration of the sleeping time induced by pentobarbital (ddy male mice; Example 3, FIG. 3, orally 20 or 100 mg/kg in olive oil, 30 min before pentobarbital 50 mg/kg i.p.): extended duration of the sleeping time induced by pentobarbital in a dose dependent manner
- enhancing activity of the sample on inhibitory potential induced by GABA (GABA receptor [1]; Example 1, FIG. 1, sample 2 μl/ml, GABA 10 μM / 0.25 μM): strong activity to enhance the response
- GABA response to GABA receptor, relative value of inhibitory potential vs GABA only (set at 100%) (GABA receptor [1]; Example 2, FIG. 2, 1-octen-3-ol 0.3 to 1 mM): up to 400%

Structure (SMILES): CC/C=C\CC1C(=O)CCC1CC(=O)OC (centres unmarked) [methyl jasmonate]
- duration of the sleeping time induced by pentobarbital (ddy male mice; [4]): significantly extended duration of the sleeping time
- enhancing activity of the sample on inhibitory potential induced by GABA (GABA receptor [1]; [5]): activity to enhance the response
- GABA response to GABA receptor, relative value of inhibitory potential vs GABA only (set at 100%) (GABA receptor [1]; [6]): ≤ 300%

Structure (SMILES): CCCCCCO [hexanol]
- stress relaxing activity [2]: stress relaxing activity
- GABA receptor-activating activity (GABA receptor [3]): has GABA receptor-activating activity

Structure (SMILES): NCCCC(=O)O [GABA]
- development of gastric ulcer (rat): suppressed in a dose dependent manner
